# Peptide text beside a SMILES is read from it. * marks the point of attachment. X1 = C=CC(=O)NCCCCC(NC(=O)OCc1ccccc1)C(=O)N1CCN(C(=O)C(CCC(=O)*)NC(=O)c2cccc3ccccc23)CC1
# Assays:
# MDA-MB-231 cells [1] = assay: Real-time cell migration assay (xCELLigence RTCA), MDA-MB-231; type: cell-based; settings: 25 µM, 24 h
# Experimental: (§1) We assayed the motility of MDA-MB-436 cells in the presence of vehicle or TG2 inhibitors 18 (NCEG2), 19 (NCEG-RHB), and NC9 at 25 μM concentration with the xCELLigence RTCA system (Real-Time Cell Analyzer System, Acea Biosciences Inc., San Diego, CA, USA). About 3 × 10^5 cells/wells were put into the top chambers of CIM-16 plates and the bottom chambers were filled with medium containing 5% FBS (Gibco Laboratories, New York, NY, USA) as a chemoattractant. Signal detection was done every 15 min for 24 h and each determination was performed in triplicate. Impedance values were expressed as a dimensionless parameter (Cell Index, CI), and values greater than 0.1 were considered positive. The rate of cell migration was also quantified by calculating the steepness, inclination, gradient, and changing rate of the CI curves over time (Slope).
# (§2) A Vehicle B 0.025 Vehicle
# (§3) C 2.5 Vehicle D 0.15 Vehicle
# (§4) Figure S11. Migration assay: A) Dynamic monitoring of the migration of MDA-MB-436 cells.
# (§5) We recorded for 24 hours the migration of the cells in the presence only of the vehicle or of the indicated TG2 inhibitors, used at 25 µM concentrations. Data are reported as Cell Index (CI) values ± SD. […] We recorded for 24 hours the migration of the cells in the presence only of the vehicle or of the indicated TG2 inhibitors, used at 25 µM concentrations. […]
# MDA-MB-468 cells = assay: Cell proliferation assay, MDA-MB-468; type: cell-based; settings: concentrations up to 100 µM, 48 h
# Experimental: (§6) MDA-MB-468 cells were cultured in Dulbecco’s Modified Eagle Medium (DMEM)/F-12 DMEM, Gibco Laboratories, New York, NY, USA), 10% FBS (Gibco Laboratories, New York, NY, USA), 50 U/mL penicillin, and 50 μg/mL streptomycin (Gibco Laboratories, New York, NY, USA), while MDA-MB-231 and MDA-MB-436 cells were cultured in DMEM High Glucose with/stable L-Glutamine (EuroClone, Pero, MI, Italy), 10% FBS, and antibiotics, all grown at 37 °C and in 5% CO2 humidified atmosphere.
# (§7) The compounds were added to the cultures at the concentrations of 25, 50, 75, and 100 μM and 0.1% DMSO represented the negative control. After 48 h, the cells were trypsinized for 2 min at 37 °C, trypsin was inactivated using 1 mL of the recovered supernatants (containing 10% FBS), centrifuged at room temperature 5 min at 1200 rpm, washed with PBS and resuspended in complete medium. Finally, 50 μL of cells were diluted in 500 μL of Count & Viability Reagent (Luminex, Prodotti Gianni, Milan, Italy) and analyzed by MUSE®.
# (§8) The experiments were carried out in triplicate and the average ± SD of the percentage of living cells was reported. Statistical analysis was performed calculating p value by a Student’s t-test, two-tailed, with homovariance and significance expressed by (*) p value < 0.05.
# (§9) Supplementary cellular evaluation figures
# (§10) Concentration (µM) Concentration (µM)
# (§11) Figure S10. […]
# MDA-MB-231 cells [2] = assay: Cell proliferation assay, MDA-MB-231; type: cell-based; settings: concentrations up to 100 µM, 48 h
# Experimental: as §6, §7, §8, §9, §10, §11
# MDA-MB-436 cells [3] = assay: Real-time cell migration assay (xCELLigence RTCA), MDA-MB-436; type: cell-based; settings: 25 µM, 24 h
# Experimental: as §1, §2, §3, §4, §5
# HaCaT cells = assay: Cell proliferation, HaCaT; type: cell-based, human; settings: concentrations up to 100 µM
# Experimental: (§12) Figure 4 Treatment of cancer cells with cell-permeable and cell-impermeable inhibitors. (A) HaCaT and SCC-13 are epidermis-derived cutaneous squamous cell carcinoma cells that were treated for 10 h with NCEG-RHB prior to imaging using a spinning disc confocal microscope. NCEG-RHB localization is detected adjacent to the nuclei (N) in both cell types and is indicated by red arrows. The HaCaT cell cultures were also stained for 15 min with MitoTracker Green before imaging. MitoTracker Green detects mitochondria membrane proteins inside the cell and the labelling is indicated by green arrows. White scale bars = 100 µm. (B) SCC-13 cells treated with cell-impermeable inhibitor 18 (NCEG2) and cell-permeable inhibitors NC9, AA9, and NCEG-RHB. Scale bars represent 50 µm; (*) p value < 0.001 (C) HaCaT cells treated with cell-impermeable inhibitor 18 (NCEG2) and cell-permeable inhibitors NC9 and AA9. Scale bars represent 50 µm; (*) p value < 0.001. (D) MDA-MB-436 cells treated with cell-impermeable 18 (NCEG2) and with cell-permeable inhibitors NC9, AA9 and NCEG-RHB. Experiments were carried out in triplicate and are represented as average ± SD of the percentage of living cells; (**) p value < 0.01.
# MDA-MB-436 cells [4] = assay: Cell proliferation assay, MDA-MB-436; type: cell-based; settings: concentrations up to 100 µM, 48 h
# Experimental: as §6, §7
# The experiments were carried out in triplicate and the average ± SD of the percentage of living cells was reported. […]
# Figure 4 Treatment of cancer cells with cell-permeable and cell-impermeable inhibitors. […] NCEG-RHB localization is detected adjacent to the nuclei (N) in both cell types and is indicated by red arrows. […]
# SCC-13 cells = assay: Cell proliferation, SCC-13; type: cell-based, human; settings: concentrations up to 100 µM
# Experimental: as §12
compound,measurement,setting,value
C=CC(=O)NCCCCC(NC(=O)OCc1ccccc1)C(=O)N1CCN(C(=O)C(CCC(=O)NCC(=O)NCC(=O)NCC(=O)NC(CC(=O)O)C(=O)NC(CC(=O)O)C(=O)NC(CC(=O)O)C(=O)O)NC(=O)c2cccc3ccccc23)CC1 (stereo not shown) [Compound 18] (X1-GGGDDD-OH; configuration not given here),effect on cell migration,MDA-MB-231 cells [1],failed to suppress migration
same,effect on cell proliferation,MDA-MB-468 cells,did not have any effect on cell proliferation
same,effect on cell proliferation,MDA-MB-231 cells [2],did not have any effect on cell proliferation
same,effect on cell migration,MDA-MB-436 cells [3],failed to suppress migration
same,effect on cell proliferation,HaCaT cells,did not have any effect on cell proliferation
same,effect on cell proliferation,MDA-MB-436 cells [4],did not have any effect on cell proliferation
same,effect on cell proliferation,SCC-13 cells,did not have any effect on cell proliferation

# — paper PMC10454375, “Cell-Impermeable Inhibitors Confirm That Intracellular Human Transglutaminase 2 Is Responsible for the Transglutaminase-Associated Cancer Phenotype” (International Journal of Molecular Sciences, 2023)
